Reference: article PMC7835231, “Human organoid biofilm model for assessing antibiofilm activity of novel agents” (NPJ Biofilms and Microbiomes, 2021)
“Also recorded” adds a separate entry of the source.

What was measured:
[1] = system: MRSA-lux (MRSA SAP149) biofilm; experiment: One-day or three-day MRSA-lux biofilm on N/TERT epidermal skin model, CFU count and luminescence; format: cell-based, Staphylococcus aureus; conditions: for antibiofilm activity (CFU recovered) against pre-established MRSA-lux biofilm: peptide 0.1% topical, 5 to 6 biological replicates, Kruskal–Wallis, Dunn's test versus control; for geometric mean of MRSA-lux bacteria recovered: untreated 1.3 × 10^8 CFU/skin, geometric mean of 3 to 9 biological replicates
Text: (§1) Bacterial strains used in this study include USA300-LAC[56] (referred to as MRSA), and a luminescent MRSA strain SAP149[57] (referred to as MRSA-lux), Pseudomonas aeruginosa strain PAO1[58] and a luminescent strain of P. aeruginosa[59] (PAO1-lux). Bacteria strains used for confocal microscopy imaging include S. aureus USA300-LAC transformed with a pKK22 plasmid expressing a far-red fluorescent protein (MRSA-FarRed), as well as P. aeruginosa PAO1 (PAO1-mCherry), transformed with an mCherry expressing plasmid, pMCh-23[60]. All S. aureus strains were grown overnight in TSB containing 1% D-glucose at 37 °C with shaking at 180 rpm, sub-cultured to mid-exponential growth phase in TSB 1% D-glucose. Bacteria were harvested and resuspended in sterile PBS to a concentration of 2 × 10^8 CFU/ml before seeding onto skin surface. All P. aeruginosa strains were grown in LB under the same conditions as mentioned above, subcultured in LB medium, and resuspended in PBS at 2 × 10^8 CFU/ml before seeding.
(§2) Skin models were established using a modification of described methods. Briefly, 3 × 10^5 N/TERT cells in 400 μl DermaLife K Keratinocyte Complete Medium with LifeFactors (5 μg/ml rh Insulin LifeFactor, 6 mM L-Glutamine LifeFactor, 1 μM Epinephrine LifeFactor, 5 μg/ml Apo-Transferrin LifeFactor, 0.5 ng/ml rh TGF-α LifeFactor, 0.4% Extract P LifeFactor, 100 ng/ml Hydrocortisone Hemisuccinate LifeFactor) were seeded onto each filter insert (ThinCert™ Cell culture insert, Greiner bio-one, Kremsmünster, Austria) in a 12-well ThinCert™ Plate (Greiner bio-one) holding 4.1 ml/well DermaLife K Keratinocyte Complete Medium with LifeFactors below each filter. Medium was refreshed every second day until N/TERT cells reached confluency in 3-4 days. Culture media both on top and below the filter were then switched to DMEM/Ham’s F-12/CnT-Prime 3D Barrier Media in a 3:1:4 ratio supplemented with 0.1 μg/ml hydrocortisone, 0.125 μg/ml isoproterenol, 0.25 μg/ml bovine insulin, 26.5 pM selenious acid, 5 mM L-serine, 5 μM L-carnitine, 1.6 mg/ml BSA, 25 μM palmitic acid, 15 μM linoleic acid and 7 μM arachidonic acid. Medium on top of the filters was removed the next day to allow air-exposure, which induced differentiation and stratification of the epidermis. After 2–3 days, linoleic acid concentration was increased to 30 μM. The skin samples were cultured for 10 days at air–liquid interface at 37 °C and 7.3% CO2 with medium being refreshed every 2–3 days.
(§3) One million MRSA or PAO1, or luminescent MRSA-lux or PAO1-lux, or fluorescently-tagged MRSA-FarRed or PAO1-mCherry resuspended in PBS were seeded (5 μl of 2 × 10^8 CFU/ml) in the center of the skin model, cultured at 37 °C and 7.3% CO2 to allow the establishment of bacterial biofilms. One day or three days after inoculation, 30 μl of 0.1% (1 mg/ml) or 0.4% (4 mg/ml) DJK-5 peptide was added on top of the biofilm for 4 h. […] To visualize biofilms, skin samples seeded with luminescent bacteria were imaged using the ChemiDoc Imaging System (Bio-Rad). To quantify bacterial counts, skin samples, together with the filter inserts, were excised using a disposable scalpel (VWR, Radnor, PA), sonicated in 1.5 ml PBS, vortexed, serially diluted, and plated on LB agar plates. The cut-off of the Y-axis in each figure indicates the detection limit of CFU count while bars indicate the geometric mean of recovered CFU.

[2] = system: PAO1-lux biofilm; experiment: One-day or three-day PAO1-lux biofilm on N/TERT epidermal skin model, CFU count and luminescence; format: cell-based, Pseudomonas aeruginosa; conditions: for antibiofilm activity (CFU recovered) against pre-established PAO1-lux biofilm: peptide 0.1% topical, 4 h, 5 to 6 biological replicates, Kruskal–Wallis, Dunn's test versus control
Text: as §1, §2, §3

[3] = system: IL-1β production; experiment: IL-1β ELISA of culture supernatant, MRSA-infected burned skin; format: cell-based, human
Procedure: (§4) Thermal damage was created by burning 10-day air–liquid interface skins at 100 °C for 4 s with a digital soldering iron (FX888D, American Hakko Products, Inc., Santa Clarita, CA). The skin filter inserts were transferred to 12-well plates (Sigma-Aldrich) containing 800 μl/well fresh culture medium prior to bacterial infection. MRSA biofilm was established by seeding 2 × 10^6 CFU in 5 μl PBS on top of the thermal damaged skin and cultured at 37 °C and 5% CO2 for 24 h. DJK-5 peptide (30 μl of 0.4%) alone or in combination with 0.01%, 0.1%, or 0.4% 1002 was administered on top of the pre-formed biofilm. Skin samples were collected 24 h post peptide treatment for colony count.
(§5) At the time of colony quantification, culture supernatants below the skin filter inserts were harvested for measuring cytotoxicity by the lactate dehydrogenase assay using a Cytotoxicity Detection Kit (Roche Diagnostics, Basel, Switzerland), according to the manufacturer’s instructions. Untreated skin samples or skin samples treated with 5% Triton X-100 were used as negative (0% toxicity) or positive (100% toxicity) control, respectively. Culture supernatants were also used to measure IL-1β and IL-8 production using ELISA kits from eBioscience (San Diego, CA).

[4] = system: N/TERT epidermal skin; format: cell-based, human
Procedure: as §4, §5

[5] = system: MRSA (USA300-LAC) biofilm on burned skin; experiment: MRSA USA300 thermal wounding skin model, colony count; format: cell-based, Staphylococcus aureus
Procedure: as §3
Thermal damage was created by burning 10-day air–liquid interface skins at 100 °C for 4 s with a digital soldering iron (FX888D, American Hakko Products, Inc., Santa Clarita, CA). The skin filter inserts were transferred to 12-well plates (Sigma-Aldrich) containing 800 μl/well fresh culture medium prior to bacterial infection. MRSA biofilm was established by seeding 2 × 10^6 CFU in 5 μl PBS on top of the thermal damaged skin and cultured at 37 °C and 5% CO2 for 24 h. […]

[6] = system: IL-8 production; experiment: IL-8 ELISA of culture supernatant, MRSA-infected burned skin; format: cell-based, human; conditions: burned skin with MRSA biofilm; 0.4% DJK-5, 24 h; ELISA of media below filter
Procedure: as §4, §5

[7] = system: P. aeruginosa PAO1 biofilm; experiment: One-day PAO1 biofilm on N/TERT epidermal skin model, CFU count; format: cell-based, Pseudomonas aeruginosa; conditions: 1-day biofilm; 0.4% (120 µg) DJK-5, 4 h; control 1.3 × 10^8 CFU/skin; geometric mean of 5 to 8 biological replicates
Text: as §1, with “All P. aeruginosa strains were grown in LB under the same conditions as mentioned above, subcultured in LB medium, and resuspended in PBS at 2 × 10^8 CFU/ml before seeding.” left out
One million MRSA or PAO1, or luminescent MRSA-lux or PAO1-lux, or fluorescently-tagged MRSA-FarRed or PAO1-mCherry resuspended in PBS were seeded (5 μl of 2 × 10^8 CFU/ml) in the center of the skin model, cultured at 37 °C and 7.3% CO2 to allow the establishment of bacterial biofilms. […] To quantify bacterial counts, skin samples, together with the filter inserts, were excised using a disposable scalpel (VWR, Radnor, PA), sonicated in 1.5 ml PBS, vortexed, serially diluted, and plated on LB agar plates. […]

[8] = system: N/TERT epidermal skin; format: cell-based, human; remark: listed apart in the source
Text: (§6) At the time of colony quantification, culture supernatants below the skin filter inserts were harvested for measuring cytotoxicity by the lactate dehydrogenase assay using a Cytotoxicity Detection Kit (Roche Diagnostics, Basel, Switzerland), according to the manufacturer’s instructions. Untreated skin samples or skin samples treated with 5% Triton X-100 were used as negative (0% toxicity) or positive (100% toxicity) control, respectively. Culture supernatants were also used to measure IL-1β and IL-8 production using ELISA kits from eBioscience (San Diego, CA). […]
(§7) Supplementary Fig 4. Burned skin without infection and 2-day biofilm on skin without thermal damage had minimal changes in cytotoxicity and cytokine production compared to skin control without infection and thermal damage.
(§8) Thermally damaged epidermal skin was mock infected with PBS for 24 hours, followed by 24 hours treatment with 0.4% DJK-5 or water (a, b). The cytotoxicity (a) and IL-8 production (b) from culture supernatant beneath skin was determined. One day pre-established MRSA-lux and PAO1-lux skin biofilm was treated with vehicle control-water for 24 hours, changes in luminescence signal (c), bacteria load (d), skin cytotoxicity (e) and IL-8 level (f) was quantified. Error bars indicate mean with SD (n=3). One-way ANOVA, Dunnett’s multiple comparisons test (* P ≤ 0.05; ** P ≤ 0.01). […]

[9] = system: IL-8 production; format: cell-based, human
Text: as §6, §7, §8

C/C(=C\C(=O)OCCCCCCCCC(=O)O)C[C@@H]1OC[C@H](C[C@@H]2O[C@H]2[C@@H](C)[C@H](C)O)[C@@H](O)[C@H]1O [mupirocin, reference compound]
bacterial load of MRSA-lux in the biofilm ([1]; 1-day biofilm, 1% mupirocin dissolved in 10% DMSO, topical, 4 h): did not have appreciable impact; also recorded: almost inactive

KRIRWVILWRQV [RI-1002, synthetic host defense peptide]
antibiofilm activity (CFU recovered) against pre-established PAO1-lux biofilm ([2]; 1-day biofilm): comparable antibiofilm activity against MRSA-lux and PAO1-lux | antibiofilm activity (CFU recovered) against pre-established MRSA-lux biofilm ([1]; 1-day biofilm, 4 h): comparable antibiofilm activity against MRSA-lux and PAO1-lux

RRWIRVAVILRV [RI-1018, synthetic host defense peptide]
antibiofilm activity (CFU recovered) against pre-established PAO1-lux biofilm ([2]; 1-day biofilm): comparable antibiofilm activity against MRSA-lux and PAO1-lux | antibiofilm activity (CFU recovered) against pre-established MRSA-lux biofilm ([1]; 1-day biofilm, 4 h): comparable antibiofilm activity against MRSA-lux and PAO1-lux

VQRWLIVWRIRK [compound 1002, Innate defense regulator peptide, a bactenecin derivative; anti-inflammatory synthetic HDP]
antibiofilm activity (CFU recovered) against pre-established PAO1-lux biofilm ([2]; 1-day biofilm): All of the peptides except 1002 significantly reduced | pro-inflammatory IL-1β release from MRSA infected burned skin ([3]; 1002 treatment alone, 24 h, ELISA): significant decreases | antibiofilm activity (CFU recovered) against pre-established MRSA-lux biofilm ([1]; 1-day biofilm, 4 h): All of the peptides except 1002 significantly reduced | cytotoxicity from MRSA infected burned skin [4]: significant decreases | reduction in bacterial count compared to untreated biofilms ([5]; burned skin with MRSA biofilm, 0.4% 1002 alone, 24 h): 17 fold

VQWRAIRVRVIR [DJK-5, D-enantiomeric antibiofilm synthetic host defense peptide]
geometric mean of recovered PAO1-lux bacteria ([2]; 1-day biofilm, 0.4% (120 µg) DJK-5, 4 h, control 8.9 × 10^7 CFU/skin, geometric mean of 5 to 8 biological replicates): 1.9 × 10^2 CFU/skin | luminescence of PAO1-lux biofilm ([2]; 1-day biofilm, 0.4% DJK-5, 4 h): evident reduction in the luminescence signal | antibiofilm activity (CFU recovered) against pre-established PAO1-lux biofilm ([2]; 1-day biofilm): comparable antibiofilm activity against MRSA-lux and PAO1-lux | bacterial burden (colony count) ([2]; 3-day PAO1-lux biofilm, 0.4% DJK-5, 4 h): significantly decreased bacterial burden | luminescence of PAO1-lux biofilm ([2]; 3-day biofilm, 0.4% DJK-5, 4 h): wiped out luminescence signal | IL-1β production ([3]; burned skin with MRSA biofilm, 0.4% DJK-5, 24 h, ELISA of media below filter): significantly suppressed | IL-8 production [6]: significantly suppressed | luminescence of MRSA-lux biofilm ([1]; 1-day biofilm, 0.1% (30 μg total peptide), 4 h, ChemiDoc imaging): reduced the area of colonization | geometric mean of MRSA-lux bacteria recovered ([1]; 1-day biofilm, 0.1% DJK-5 (30 μg) topical, 4 h): 1.6 × 10^6 CFU/skin | luminescence of MRSA-lux biofilm ([1]; 1-day biofilm, 0.4% (120 μg), 4 h, ChemiDoc imaging): completely abolished the luminescence | geometric mean of MRSA-lux bacteria recovered ([1]; 1-day biofilm, 0.4% DJK-5 (120 μg) topical, 4 h): 2.1 × 10^4 CFU/skin | antibiofilm activity (CFU recovered) against pre-established MRSA-lux biofilm ([1]; 1-day biofilm, 4 h): comparable antibiofilm activity against MRSA-lux and PAO1-lux; also recorded: superior activity in eradicating MRSA biofilm | reduction of bacterial load ([1]; 3-day MRSA-lux biofilm, 0.4% DJK-5, within 4 h of treatment, versus untreated): 4 log orders of magnitude | luminescence of MRSA-lux biofilm ([1]; 3-day biofilm, 0.4% DJK-5, 4 h): successfully wiped out the bacterial luminescence | geometric mean of recovered non-luminescent PAO1 bacteria [7]: 4.9 × 10^3 CFU/skin | bacterial load on burned skin ([5]; skin burned 100 °C 4 s, 24 h MRSA biofilm, 0.4% DJK-5 (120 μg) in PBS topical, control 7.8 × 10^8 CFU/skin, geometric mean): 3.2 × 10^5 CFU/skin | increase in observed cytotoxicity compared to control skin [8]: ~ 5% | IL-8 production compared to control skin [9]: slightly increased IL-8 production

VQWRRIRVWVIR [DJK-6, synthetic host defense peptide]
antibiofilm activity (CFU recovered) against pre-established MRSA-lux biofilm ([1]; 1-day biofilm, 4 h): superior effects in eradicating MRSA-lux biofilms; also recorded: superior activity in eradicating MRSA biofilm

VRLIVAVRIWRR [compound 1018, synthetic host defense peptide]
antibiofilm activity (CFU recovered) against pre-established MRSA-lux biofilm ([1]; 1-day biofilm, 4 h): superior effects in eradicating MRSA-lux biofilms; also recorded: superior activity in eradicating MRSA biofilm
